Laboratory results as given in patent publication US8618169B2, “Derivatives of N-phenylanthranilic acid and 2-benzimidazolone as potassium channel and/or neuron activity modulators” (Ramot at Tel-Aviv University Ltd., priority 2002, dated 2013).
“And” between values parts separate entries of the source, which are not always exact repeats. Identical values can stand only once.

Legend:
rat cortical neurons = assay: Evoked and spontaneous action potential activity of cultured rat cortical neurons, current-clamp; assay type: cell-based
KCNQ2/3 channels = target: T1, KCNQ2/3 channels (Homo sapiens, UniProt O43525+O43526); assay: KCNQ2/3 current in transfected CHO cells, whole-cell patch-clamp; assay type: cell-based
T1 construct: expressed in transfected cells; host or cells: CHO cells

COX (Cyclooxygenase) = assay: COX activity assay in C-26 cells (PGE2 radioimmunoassay); assay type: cell-based; settings: for IC50: C-26 cells
Method: C-26 cells were plated on 24-well plates using RPMI medium. Different concentrations of the tested compound were added thereto and the cells were incubated for 30 minutes at 37° C. 30 μM exogenic arachidonic acid was then added and incubation was continued for 20 minutes (37° C.), so as to allow the cells to synthesize PGE2. Indomethacin was added thereafter (10 μM), to stop and completely block the activity. Then, the upper solution was removed into clean 24-wells. To the remained cells 100 μl NaOH (1M) were added to induce cytolysis, and the cells were left for later protein measurement. The solution removed to the new 24-well was used for a radioimmunoassay. The COX activity was estimated by calculating the ng PGE2/mg protein parameter.

[1] = system: electroshock-induced seizures; assay: Maximal electroshock seizure (MES) test in ICR mice; assay type: in vivo
Method: All animals were treated in accordance with the Guide for the Care and Use of Laboratory Animals as adopted and promulgated by the U.S. National Institutes of Health. The procedures followed for experimentation and maintenance of the animals were approved by the animal research ethics committee of Tel Aviv University and in accordance with the Guide for the Care and Use of Laboratory Animals (1996. National Academy of Sciences, Washington D.C). […] electroshock were induced in adult mice by means of two transcorneal electrodes delivering an alternative current of 50 mA at 60 Hz for 0.2 sec using rodent shocker (Hugo Sachs Electronik, type 221). […] The tested compounds were dissolved in 0.9% saline were administered intraperitoneally either 30 minutes or 2 hours before the electroshock was performed. Animals failing to show tonic hind limb extension were scored as protected and were expressed in percentage.
Five groups of 10 ICR mice each received intraperitoneally saline (control) or meclofenamic acid (Compound 1) at 25 mg/kg, 50 mg/kg, 100 mg/kg and 150 mg/kg and were subjected 30 minutes later to an electric shock (50 mA, 0.2 second duration, 60 Hz).
In view of the strong depressing activity of Compound 6 on cortical neurons, the anticonvulsant activity in mice subjected to seizures produced by electroshock was examined, using the MES test described above. Compound 6 dissolved in saline was injected intraperitoneally (in a volume of 10 ml/kg) at doses ranging from 6 mg/kg to 20 mg/kg to ICR adult mice and its anticonvulsant activity was compared with saline. Twenty minutes after drug administration, seizures were produced by electroshock (50 mA, 0.2 second duration, 60 Hz).

M-current = target: T2, M-current (Rattus norvegicus, UniProt O88943+O88944); assay: Native M-current of cultured rat cortical neurons, voltage-clamp; assay type: cell-based; settings: cortical neurons, from −50 mV to −70 mV
T2 construct: the native M-current from pyramidal-like neurons was recorded; endogenous in cells; host or cells: primary cortical neurons from Sprague Dawley rat embryos (E18)

small DRG neurons = assay: Spiking activity of DRG neurons, current-clamp; assay type: cell-based, mouse; settings: 15 μM; 75 pA, 400 ms
Method: Dorsal root ganglion (DRG) neurons were dissected from 2-4 days-old ICR mice that were decapitated. DRGs were placed in Hank's balanced saline solution (HBSS) and were prepared by enzymatic dissociation. Briefly, cells were incubated for 30 minutes in 5 mg/ml dispase (Sigma), 2 mg/ml collagenase type 1A (Sigma) and 0.1 mg/ml DNase (Invitrogen/Gibco) in calcium and magnesium-free HBSS, and the ganglia were thereafter mechanically triturated with a firepolished glass Pasteur pipette. The ganglia were then centrifuged for 5 minutes at 80×g and resuspended in DMEM supplemented with 2 mM L-glutamine, 16.5 mM NaCO3, 6 g/l glucose, 5 ml penicillin/streptomycin and 10% fetal calf serum. For electrophysiological recording, dissociated neurons were plated on 13 mm glass coverslips previously coated with poly-D-lysine (1 mg/ml) and laminin (10 μg/ml) and were used after 2-6 days in culture.
For current measurements in CHO cells, recordings were performed 40 hours following transfection, using the whole-cell configuration of the patch-clamp technique [Hamill et al., Nature 294: 462-464 (1981)]. Signals were amplified using an Axopatch 200B patch-clamp amplifier (Axon Instruments, Foster City, Calif., USA), sampled at 2 kHz and filtered at 800 Hz via a 4-pole Bessel low pass filter. Data were acquired using pClamp 8.1 software (Axon Instruments, Foster City, Calif., USA) and an Elonex Pentium III computer in conjunction with a DigiData 1322A interface (Axon Instruments, Foster City, Calif., USA). The patch pipettes were pulled from borosilicate glass (Warner Instrument. Corp., Hamden, Conn., USA) with a resistance of 2-5 MΩ and were filled with (in mM): 130 KCl, 1 MgCl2, 5 K2ATP, 5 EGTA, 10 HEPES, adjusted with KOH at pH 7.4 (290 mOsm). The external solution contained (in [mM]): 140 NaCl, 4 KCl, 1.8 CaCl2, 1.2 MgCl2, 11 glucose, 5.5 HEPES, adjusted with NaOH at pH 7.4 (310 mOsm). Series resistances (3-13 MΩ) were compensated (75-90%) and periodically monitored. […]

KCNQ2/Q3 = KCNQ2/Q3 (Homo sapiens, UniProt O43525+O43526); assay: Opener potency on KCNQ2/Q3 by leftward shift of half-activation potential (ΔV50) versus concentration, Hill fit; assay type: cell-based; parameters: expressed in transfected cells

For `CN(CCO)C(=O)Cc1ccccc1Nc1c(Cl)cccc1Cl` [Compound 9], the “effect on evoked and spontaneous spiking activity of cortical neurons” value (from here on “effect … of cortical neurons”) (rat cortical neurons; 20 μM) was “inhibitory activity” and the “opener action on recombinant KCNQ2/3 channels (in words)” value (shortened to “opener action”) (KCNQ2/3 channels; CHO cells) was “only a weak opener action”.
With `CCn1c(=O)[nH]c2ccccc21` [Compound 10, 1-ethyl benzimidazolone] the “increase of the current amplitude” value (KCNQ2/3 channels; 100 μM, train protocol, cells stepped to −30 mV) was “up to 57%”.
`COCCOCCOC(=O)Cc1ccccc1Nc1c(Cl)cccc1Cl` [Compound 8] was tested, and the “effect on evoked and spontaneous cortical neuron activity” value (rat cortical neurons) was “depress”, the “effect … of cortical neurons” value (rat cortical neurons; low concentrations (10 μM evoked, 5 μM spontaneous)) was “potent inhibitory activity” and the “opener action” value (KCNQ2/3 channels; CHO cells) was “only a weak opener action”.
With `Cc1c(Cl)cccc1Nc1ccccc1C(=O)NCCOCCO` [Compound 3] the “increase of the current amplitude” value (KCNQ2/3 channels; 25 μM, train protocol, stepped to −50 mV) was “up to 299±47%”, the “opener action” value (KCNQ2/3 channels; CHO cells) was “potent KCNQ2/3 potassium channel opening properties” and the IC50 (COX (Cyclooxygenase)) was 113 nM and 114 nM.
`O=C(O)Cc1ccccc1Nc1c(Cl)cccc1Cl` [Compound 2, diclofenac] was tested, and the “effect on evoked action potentials” value (rat cortical neurons; 25 μM) was “no spike could be evoked”, the “effect on spontaneous spiking activity” value (rat cortical neurons; 25 μM) was “quickly and reversibly depressed” and the “% Protection” value ([1]; 25 mg/kg i.p., 30 minutes before electroshock) was 10 (10) %. The “% Protection” value ([1]; 50 mg/kg i.p., 30 minutes before electroshock, listed as Diclofenac) was 64 (11) %, the “% Protection” value ([1]; 50 mg/kg i.p., 30 minutes before electroshock, listed as diclofenac) was 64% and the “% Protection” value ([1]; 50 mg/kg i.p., 2 hours before electroshock) was 50 (4) %. The “% Protection” value ([1]; 100 mg/kg i.p., 30 minutes before electroshock) was 92 (12) %, the “% Protection” value ([1]; 100 mg/kg i.p., 2 hours before electroshock) was 83 (6) % and the “% Protection” value ([1]; 200 mg/kg i.p., 30 minutes before electroshock) was 100 (15) %. The “% Protection” value ([1]; 200 mg/kg i.p., 2 hours before electroshock) was 100 (6) % and the ED50 ([1]; Mus musculus, intraperitoneal, 30 minutes or 2 hours before electroshock, 25-200 mg/kg, read-out: ED50 for suppression of tonic extension induced by MES) was 43 mg/kg.
In the case of `CCCC(CCC)C(=O)[O-].[Na+]` [sodium valproate], the “protection from hind limb extension” value ([1]; 500 mg/kg intraperitoneal, 30 minutes before electroshock) is reported as “fully prevented hind limb extension”.
With `O=C(NCCOCCO)c1ccccc1Nc1cccc(C(F)(F)F)c1` [Compound 4] the “effect on evoked and spontaneous cortical neuron activity” value (rat cortical neurons) was “depress”, the “effect on spontaneous spiking activity” value (rat cortical neurons; 20 μM) was “markedly depressed” and the “increase of the current amplitude” value (KCNQ2/3 channels; 50 μM, stepped from −85 mV to −40 mV) was greater than 1.5 fold. The “increase of the current amplitude” value (KCNQ2/3 channels; 50 μM, stepped from −85 mV to −50 mV) was “more than 4 fold”, the “opener action” value (KCNQ2/3 channels; CHO cells) was “potent KCNQ2/3 channel opener” and the IC50 (COX (Cyclooxygenase)) was greater than 30000 nM. For the same compound, the “negative shift in the threshold of M-current activation” value (“negative shift in the threshold” for short) (M-current) was “approximately 20 mV”.
In the case of `Cc1cccc(Nc2ccccc2C(=O)NCCOCCO)c1C` [Compound 5], the “effect on evoked and spontaneous cortical neuron activity” value (rat cortical neurons) is reported as “depress”, the “effect on evoked action potentials” value (rat cortical neurons; 25 μM) is reported as “reversibly inhibited” and the “effect on current amplitude” value (KCNQ2/3 channels; 15 μM, at −40 and −50 mV) is reported as “enhances the current amplitude”. For the same compound, the “leftward shift in the voltage-dependence of KCNQ2/3 activation” value (KCNQ2/3 channels; 25 μM, CHO cells) was roughly 8 mV, the “V50 of KCNQ2/3 activation with compound” value (KCNQ2/3 channels; 25 μM, CHO cells, control −30.9±4.1 mV) was −38.3±1.9 mV and the “effect on deactivation kinetics of KCNQ2/3 channels” value (KCNQ2/3 channels; CHO cells) was “slowed down”. For the same compound, the “COX inhibition activity (in words)” value (COX (Cyclooxygenase)) was “do not exhibit COX inhibition activity”, the IC50 (COX (Cyclooxygenase)) was 10300 nM and the “negative shift in the threshold” value (M-current) was “approximately 20 mV”.
With `O=C(Cc1ccccc1Nc1c(Cl)cccc1Cl)OCCOCCO` [Compound 7] the “effect on evoked and spontaneous cortical neuron activity” value (rat cortical neurons) was “depress”, the “effect … of cortical neurons” value (rat cortical neurons; 20 μM) was “very potent inhibitory activity” and the “opener action” value (KCNQ2/3 channels; CHO cells) was “potent KCNQ2/3 channel opener”. For the same compound, the IC50 (COX (Cyclooxygenase)) was 11 nM and 11.7 nM and the “negative shift in the threshold” value (M-current) was “approximately 20 mV”.
With `O=C1NC(=O)C(c2ccccc2)(c2ccccc2)N1` [phenyloin] the “protection from hind limb extension” value ([1]; 20 mg/kg intraperitoneal, 30 minutes before electroshock) was “fully prevented hind limb extension”.
With `CCOC(=O)Nc1ccc(NCc2ccc(F)cc2)cc1N` [retigabine, N-(2-amino-4-(4-fluorobenzylamino)-phenyl)carbamic acid ethyl ester] the “effect on trains of evoked spikes” value (small DRG neurons) was “Very similar results”, the EC50 (KCNQ2/Q3) was 2000 ± 1300 nM and the “Hill coefficient ηH” value (KCNQ2/Q3; Hill fit, compound alone) was 1.20±0.30. The “maximum ΔV50” value (KCNQ2/Q3; increasing concentrations co-exposed with 25 μM meclofenamic acid) was −32±4 mV.
